The test system of series [1] is Plasmodium berghei. In words: Antimalarial activity against Plasmodium berghei ANKA infected in mouse assessed as reduction in parasitemia by measuring effective dose at administrated orally for 4 days by flow cytometry analysis. The class given is functional. Conditions: 96 h, route po, time 4 day.
Series [2] relates to Plasmodium falciparum. In words: Antiplasmodial activity against mixture of chloroquine resistant Plasmodium falciparum RKL 303-chloroquine sensitive Plasmodium falciparum 3D7 infected in human erythrocyte assessed as inhibition of parasite growth incubated for 48 hrs by Giemsa staining based microscopic analysis. The class given is functional, organism-based.
Series [3] has as its system Plasmodium falciparum. Put plainly: Antiplasmodial activity against chloroquine resistant Plasmodium falciparum RKL9 infected in human erythrocyte assessed as inhibition of parasite growth incubated for 24 hrs by two fold serial dilution assay. The class given is functional, organism-based.
Series [4] concerns Plasmodium berghei. In words: Antimalarial activity against Plasmodium berghei ANKA infected in Swiss albino mouse assessed as reduction in parasitemia at 50 micromol/kg,po administrated for 4 days by Giemsa staining based microscopic analysis. The arrangement: scale not given: the % may be the effect or the level left. To be noted: dose 50 µmol/kg, time 4 day. Type of series: functional.

Series [5] is described as follows: Selectivity index, ratio of CC50 for cytotoxicity against human HepG2 cells by MTT assay to IC50 for antiplasmodial activity against chloroquine resistant Plasmodium falciparum W2 by SYBR green I dye based fluorescence assay. The class given is toxicity, cell-based. Conditions: read-out: Ratio CC50/IC50.
The subject of series [6] is Plasmodium falciparum. In words: Antiplasmodial activity against chloroquine sensitive Plasmodium falciparum 3D7 assessed as inhibition of parasite growth incubated for 48 hrs by SYBR green I dye based fluorescence assay. The class given is functional, organism-based. Conditions: 3D7, 48 h.
Series [7] concerns Plasmodium falciparum. Put plainly: Antiplasmodial activity against chloroquine resistant Plasmodium falciparum W2 assessed as inhibition of parasite growth incubated for 48 hrs by SYBR green I dye based fluorescence assay. The class given is functional, organism-based. Conditions: W2, 48 h.
Series [8] relates to Plasmodium falciparum. Put plainly: Antiplasmodial activity against Plasmodium falciparum 3D7 assessed as inhibition of parasite growth incubated for 72 hrs by LDH assay based spectrofluorometric analysis. The class given is functional, organism-based. Conditions: 3D7, 72 h.
In series [9] the test system is Plasmodium falciparum. Put plainly: Antiplasmodial activity against chloroquine resistant Plasmodium falciparum Dd2 assessed as inhibition of parasite growth incubated for 72 hrs by LDH assay based spectrofluorometric analysis. The class given is functional, organism-based. To be noted: Dd2, 72 h.
The test system of series [10] is Plasmodium falciparum. In words: Antiplasmodial activity against Plasmodium falciparum TM90-C2A assessed as inhibition of parasite growth incubated for 72 hrs by SYBR Green I dye based fluorescence assay. The class given is functional, organism-based.
In series [11] the test system is Plasmodium falciparum. Put plainly: Antiplasmodial activity against Plasmodium falciparum TM90-C2B assessed as inhibition of parasite growth incubated for 72 hrs by SYBR Green I dye based fluorescence assay. The class given is functional, organism-based.
Series [12] has as its system Plasmodium falciparum. Put plainly: Antiplasmodial activity against Plasmodium falciparum W2 assessed as inhibition of parasite growth incubated for 72 hrs by SYBR Green I dye based fluorescence assay. The class given is functional, organism-based. To be noted: W2, 72 h.
The subject of series [13] is Plasmodium falciparum. In words: Antiplasmodial activity against Plasmodium falciparum TM91-C23 assessed as inhibition of parasite growth incubated for 72 hrs by SYBR Green I dye based fluorescence assay. Type of series: functional, organism-based. Conditions: TM91-C23, 72 h.
Series [14] deals with Plasmodium vinckei. Put plainly: Antimalarial activity against Plasmodium vinckei infected in Swiss OF1 mouse assessed as reduction in parasite growth by measuring its effective dose administrated orally for four consecutive days and measured on day 5 by Giemsa staining based microscopic analysis. The class given is functional. To be noted: 120 h, route po, time 5 day.
The test system of series [15] is Plasmodium vinckei. In words: Antimalarial activity against Plasmodium vinckei infected in Swiss OF1 mouse assessed as reduction of parasitaemia at 10 mg/kg,po administrated for four consecutive days and measured on day 5 by Giemsa staining based microscopic analysis. Also on record: scale not given: the % may be the effect or the level left. To be noted: time 5 day. Type of series: functional.

The subject of series [16] is Plasmodium falciparum. Put plainly: Antiplasmodial activity against chloroquine resistant Plasmodium falciparum K1 infected in human RBC assessed as inhibition of parasite growth incubated for 48 hrs by optical microscopy analysis. Conditions: K1, Erythrocyte. The class given is functional, organism-based.
Series [17] in a line: Selectivity index, ratio of CC50 for cytotoxicity against human HepG2 cells by MTT assay to IC50 for antiplasmodial activity against chloroquine sensitive Plasmodium falciparum 3D7 by SYBR green I dye based fluorescence assay. Conditions: read-out: Ratio CC50/IC50. The class given is toxicity, cell-based.
Series [18] concerns Plasmodium falciparum. Put plainly: Antimalarial activity against Plasmodium falciparum FCBR assessed as inhibition of parasite growth by SYTOX Green dye based high-throughput assay. The class given is functional, organism-based.
In the next series the target is T1, Falcipain 2 (Plasmodium falciparum, UniProt Q9N6S8).
T1 sequence (Q9N6S8 whole entry): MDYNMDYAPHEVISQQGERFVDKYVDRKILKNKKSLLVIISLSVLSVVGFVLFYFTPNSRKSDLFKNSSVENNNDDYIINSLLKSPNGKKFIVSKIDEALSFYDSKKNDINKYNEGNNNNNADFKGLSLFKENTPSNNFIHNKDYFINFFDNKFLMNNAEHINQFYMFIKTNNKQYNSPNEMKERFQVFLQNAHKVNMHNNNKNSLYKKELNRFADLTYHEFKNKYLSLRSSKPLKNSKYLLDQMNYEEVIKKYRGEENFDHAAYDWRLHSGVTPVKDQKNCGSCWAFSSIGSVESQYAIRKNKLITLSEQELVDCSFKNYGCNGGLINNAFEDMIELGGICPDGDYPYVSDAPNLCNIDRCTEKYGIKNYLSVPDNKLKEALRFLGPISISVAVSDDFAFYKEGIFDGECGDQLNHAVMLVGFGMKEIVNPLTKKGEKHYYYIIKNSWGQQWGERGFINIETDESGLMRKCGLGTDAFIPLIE
Put plainly: Inhibition of Plasmodium falciparum recombinant His-tagged falcipain-2 expressed in Escherichia coli assessed as inhibition constant using Cbz-Phe-Arg-AMC as substrate by fluorescence spectrophotometer assay.

Series [19] is described as follows: Retention time of the compound by HPLC-MS analysis. The class given is physicochemical.
The subject of series [20] is Plasmodium falciparum. Put plainly: Antiplasmodial activity against Plasmodium falciparum K1 infected in human erythrocyte assessed as inhibition of parasite growth incubated for 72 hrs by [3H]-hypoxanthine incorporation based liquid scintillation counting method. The class given is functional, organism-based.
Series [21] relates to Plasmodium falciparum. In words: Additive antiplasmodial activity against Plasmodium falciparum NF54 gametocytes infected in human erythrocyte assessed as inhibition of parasite growth by measuring minimum inhibitory concentration incubated for 48 hrs in presence of lumefantrine by SYBR Green dye based fluorescence assay. Type of series: functional.
Series [22] concerns Plasmodium falciparum. Put plainly: Additive antiplasmodial activity against Plasmodium falciparum NF54 gametocytes infected in human erythrocyte assessed as inhibition of parasite growth by measuring minimum inhibitory concentration incubated for 48 hrs in presence of chloroquine by SYBR Green dye based fluorescence assay. Type of series: functional.
For series [23], the system named is Plasmodium falciparum. Put plainly: Antiplasmodial activity against Plasmodium falciparum NF54 gametocytes infected in human erythrocyte assessed as inhibition of parasite growthVincubated for 48 hrs by SYBR Green dye based fluorescence assay. Type of series: functional, organism-based.
Series [24] has as its system Plasmodium falciparum. In words: Additive antiplasmodial activity against Plasmodium falciparum NF54 gametocytes infected in human erythrocyte assessed as inhibition of parasite growth by measuring minimum inhibitory concentration incubated for 48 hrs in presence of mefloquine by SYBR Green dye based fluorescence assay. Type of series: functional.

Converted amounts (≈) assume the structure as drawn.

Turning to `CC(=O)N1CCN(c2ccc(CN(C(=O)/C=C/c3ccc(C(F)(F)F)cc3)[C@@H](Cc3ccccc3)C(=O)N3CCN(Cc4ccc(N(C)CCO)cc4)CC3)cc2)CC1`, in the series on Plasmodium berghei [1], the ED90 is 54.4 mg/kg.

On to `COc1ccc(/C=C/C(=O)c2ccc(-n3cnc4ccccc43)cc2)c(OC)c1`, for which, in the series on Plasmodium falciparum [2], the IC50 turned out to be 1.1 µg/mL (≈ 2.86 µM).

Consider `O=C(O)c1cn(-c2ccc(Cl)cc2)nc1-c1ccccc1`, for which the IC50 in the series on Plasmodium falciparum [3] was 33 nM. Also, in the series on Plasmodium berghei [4], the Activity stood at 97%.

Regarding `c1cc(CNCCCN2CCN(CCCNCc3cccc(-c4nc5ccccc5n5cccc45)c3)CC2)cc(-c2nc3ccccc3n3cccc23)c1`, the selectivity ratio in series [5] was 40.6. For the same compound, the IC50 stood at 370 nM in the series with Plasmodium falciparum [6] and 50 nM with Plasmodium falciparum [7].

Take `C/C1=C\[C@H](C)[C@@H](O)C[C@@H](O)/C(C)=C/[C@H](C)C[C@@H](C)CC[C@@H]([C@@H](C)C(=O)O)OC(=O)[C@@H](C)C1`: the IC50 with Plasmodium falciparum [8] was 128 nM; in the series on Plasmodium falciparum [9], 180 nM.

For `C/C1=C\C(=O)O[C@@H](C(C)(C)C)CCC[C@@H](O)CCC[C@H](O)CCC[C@H](O)CCC[C@@H](O)C[C@H](O)C[C@@H](O)CCC[C@H](O)CCC[C@H](O)C[C@@H](O)CCCCC1`, the IC50 with Plasmodium falciparum [10] is 80 nM; in the series with Plasmodium falciparum [11], 90 nM; in the series on Plasmodium falciparum [12], 140 nM; with Plasmodium falciparum [13], 270 nM.

As to `CO/N=C(/N)c1ccc(-n2cc(-c3cccc(/C(N)=N\OC)c3)nn2)cc1`, the ED50 in the series on Plasmodium vinckei [14] was found to be 5 mg/kg. For the same compound, in the series on Plasmodium vinckei [15], the Activity is 100%.

Regarding `c1ccc(CCC2(CCc3ccccc3)OOC(CCc3ccccc3)(CCc3ccccc3)OO2)cc1`, in the series with Plasmodium falciparum [16], the half-maximal inhibitory concentration (IC50) was found to be 1600 nM.

For the compound `COc1ccc2c(c1)nc(-c1cccc(CNCCCN3CCN(CCCNCc4cccc(-c5nc6ccc(OC)cc6n6cccc56)c4)CC3)c1)c1cccn12`, the results for the IC50 with Plasmodium falciparum [6] and with Plasmodium falciparum [7] were 40 nM and 170 nM, respectively. For the same compound, the selectivity ratio in [17] amounted to 39.2.

For the compound `C/C1=C\[C@H](C)CC[C@@H](O)/C(C)=C/[C@H](C)C[C@@H](C)CC[C@@H]([C@@H](C)C(=O)O)OC(=O)[C@@H](C)C1`, the IC50 was found to be 13 nM in the series on Plasmodium falciparum [8] and 32 nM in the series on Plasmodium falciparum [9].

Take `N=C(NC(=O)OCc1ccccc1)NC(=O)c1ccc(C(=O)NCc2ccc(NC(=O)OCc3ccccc3)cc2)o1`: in the series with Plasmodium falciparum [18], the IC50 came to 1060 nM. At Falcipain 2, the Ki was 1080 nM.

On to `C[C@H](C[C@H](O)[C@@H](O)C(C)(C)O)C1=C2C[C@H](O)[C@H]3[C@@]4(C)CCC(=O)C(C)(C)[C@@H]4CC[C@]3(C)[C@@]2(C)CC1` [ALISOL A], for which the Retention_time in [19] is on record as 23 min. Moreover, in the series with Plasmodium falciparum [20], the IC50 was 13800 nM.

Consider `C[n+]1c2ccccc2cc2[n-]c3ccccc3c21` [CRYPTOLEPINE], for which the MIC50 was 1.02 nM in the series with Plasmodium falciparum [21], 1.46 nM in the series with Plasmodium falciparum [22] and 4.18 nM in the series on Plasmodium falciparum [24]. The IC50 in the series on Plasmodium falciparum [23] is 19.6 nM.

Consider `C=CC(C)(C)c1cc(/C=C/C(=O)c2ccc(O)cc2)c(OC)cc1O` [LICOAGROCHACONE A], for which the IC50 in the series on Plasmodium falciparum [2] came out at 1.43 µg/mL (≈ 4.23 µM).

These data come from ChEMBL document CHEMBL5352391, “New structural classes of antimalarials” (Eur J Med Chem, 2022).
